Test system: HDAC
Assay: Alternative HDAC activity assay (Cayman Chemicals fluorescent-based HDAC activity assay)
Format: biochemical
Details: acetylated lysine substrate, HDAC developer, fluorescence readout; compared with MS-275
Experimental: Cayman Chemicals markets a commercial fluorescent-based HDAC activity assay. The assay utilizes a fluorescent-based method for measuring HDAC activity that eliminates radioactivity, extraction or chromatography. The assay requires two steps: first, an acetylated lysine substrate is incubated with samples containing HDAC activity. Deacetylation sensitizes the substrate such that treatment with the HDAC developer in the second step releases a fluorescent product. The fluorophore can be analyzed using a fluorescence plate reader or a fluorometer with […].

Row | SMILES | HDAC activity (fluorescent-based HDAC activity assay, FIG. 1)
1 | C[C@H](OC(=O)NCc1ccc(C(=O)Nc2ccccc2N)cc1)c1cccnc1 [(S)-1-(pyridin-3-yl)ethyl 4-(2-aminophenylcarbamoyl)benzylcarbamate] | activity similar to MS-275
2 | C[C@@H](OC(=O)NCc1ccc(C(=O)Nc2ccccc2N)cc1)c1cccnc1 [(R)-1-(pyridin-3-yl)ethyl 4-(2-aminophenylcarbamoyl)benzylcarbamate] | activity similar to MS-275
